The values below come from ChEMBL document CHEMBL1159236, “Venezenin: a new bioactive Annonaceous acetogenin from the bark of Xylopia aromatica” (J Nat Prod, 1995).

Structures are written as SMILES. ≈ marks a conversion by molar mass, not a printed value.

One data set relates to HT-29. The data set is described as follows: Cytotoxicity against human HT-29 cells after 7 hrs by MTT assay. It is filed as functional. As to conditions: for EC50: Homo sapiens, HT-29, 7 h, read-out: ED50 (the source's name). (Tetrazolium dyes change colour on reduction, which living cells bring about.)
The next data set concerns MCF7. The data set is described as follows: Cytotoxicity against human MCF7 cells after 7 hrs by MTT assay. It is filed as functional. Particulars: for EC50: Homo sapiens, MCF7, 7 h, read-out: ED50 (the source's name).
A further data set concerns A549. The data set is described as follows: Cytotoxicity against human A549 cells after 7 hrs by MTT assay. Type of data set: functional. As to conditions: A549, 7 h, read-out: ED50 (the source's name).
A short description of data set [1]: Inhibition of respiration in rat liver mitochondria assessed per mg of protein. It is filed as functional.
Data set [2] is described as follows: Toxicity in brine shrimp. Particulars: artemia, in vivo. Type of data set: organism-based.

On to `CCCCCCCCCCCC/C=C\CC[C@H]1OC(C)(C)O[C@@H]1CCCCCCC(=O)CCCCC[C@@H](O)CC1=C[C@H](C)OC1=O`, for which the EC50 was 0.932 µg/mL (≈ 1.44 µM) in the data set on HT-29, 0.347 µg/mL (≈ 0.536 µM) in the data set on MCF7 and less than 0.001 µg/mL with A549.

With `CCCCCCCCCCCC[C@H](O)[C@@H]1CC[C@@H]([C@@H](O)CCCCCCC(=O)CCCCC[C@@H](O)CC2=C[C@H](C)OC2=O)O1`, the ED50 with HT-29 is listed as 3.46 ×10⁻⁴ ug/ml; in the data set with MCF7, 7.47 ×10⁻⁵ ug/ml. Also, half-maximal inhibition in data set [1] (IC50) required 1.7 µM. Moreover, the EC50 in the data set with A549 was 0.00786 µg/mL (≈ 0.0126 µM). In addition, the LC50 (usually the concentration that kills 50% of the test population) in data set [2] came out at 0.84 µg/mL (≈ 1.35 µM).

For `CCCCCCCCCCCC/C=C\CC[C@@H](O)[C@H](O)CCCCCCC(O)CCCCC[C@@H](O)CC1=C[C@H](C)OC1=O` (stereo partly drawn), the EC50 was 2.62 µg/mL (≈ 4.3 µM) with HT-29, 0.0572 µg/mL (≈ 0.0939 µM) with MCF7 and less than 0.001 µg/mL in the data set on A549.

Consider `CCCCCCCCCCCC[C@H](O)[C@@H]1CC[C@H]([C@H](O)CCCCCCC(=O)CCCCC[C@@H](O)CC2=C[C@H](C)OC2=O)O1`, for which the EC50 came to 0.047 µg/mL (≈ 0.0755 µM) in the data set with HT-29, 0.056 µg/mL (≈ 0.0899 µM) in the data set with MCF7 and 0.0045 µg/mL (≈ 0.00722 µM) in the data set on A549. The same compound had an LC50 in data set [2] of 0.98 µg/mL (≈ 1.57 µM).

As to `COc1cccc2c1C(=O)c1c(O)c3c(c(O)c1C2=O)C[C@@](O)(C(=O)CO)C[C@@H]3O[C@H]1C[C@H](N)[C@H](O)[C@H](C)O1` [DOXORUBICIN], the EC50 came out at 0.0392 µg/mL (≈ 0.0721 µM) in the data set on HT-29, 0.23 µg/mL (≈ 0.423 µM) in the data set on MCF7 and 0.0092 µg/mL (≈ 0.0169 µM) in the data set on A549.

`C=C(C)[C@H]1Cc2c(ccc3c2O[C@@H]2COc4cc(OC)c(OC)cc4[C@@H]2C3=O)O1` [ROTENONE]: half-maximal inhibition in data set [1] (IC50) required 34 µM.

With `CCCCCCCCCCCC/C=C\CC[C@@H](O)[C@H](O)CCCCCCC(=O)CCCCC[C@@H](O)CC1=C[C@H](C)OC1=O` [VENEZENIN], the EC50 in the data set on HT-29 is 1.58 µg/mL (≈ 2.6 µM); in the data set with MCF7 it was less than 0.01 µg/mL; with A549 it was 0.0108 µg/mL (≈ 0.0178 µM). In addition, the LC50 in data set [2] amounted to 9.33 µg/mL (≈ 15.4 µM).
